Measured values: patent publication US6008019A, “Plasminogen activator from saliva of the vampire bat” (Schering Aktiengesellschaft, priority 1989, dated 1999)
Where two headings read alike, the source gives them in different places. Where a SMILES comes first, the peptide text is derived from it. [ ]: non-standard residue; d: D form. The star is where a group is joined. pNA = O=[N+]([O-])c1ccc(N*)cc1; pGlu = O=C1CC[C@@H](C(=O)O)N1

How the values were obtained:
[1] = molecular target: T1, t-PA (tissue-type plasminogen activator) (Homo sapiens, UniProt P00750); details: literature value (Friedberger 1982), read-out: Km (value in parentheses, from the literature); cited from earlier work
Urokinase [2] = molecular target: T2, Urokinase (Homo sapiens, UniProt P00749); assay: Km determination of amidolytic chromogenic substrates with urokinase; assay type: biochemical; details: 3 units per hole, 100 mM Tris pH 8.0/100 mM NaCl/0.01% Tween 80, 37° C., Lineweaver-Burk plot
Method: (§1) In a 96-hole plate, respectively 90 μl of 100 mM Tris pH 8.0/100 mM NaCl/0.01% "Tween" 80 and 50 μl of the corresponding chromogenic substrate (all from Kabi Vitrum, Stockholm, Sweden) in the final concentrations of 0.03/0.06/0.1/0.3/0.6 and 1 mM are incubated with 10 μl (3 units per hole) of the corresponding plasminogen activator at 37° C., and the thus-released p-nitroaniline is determined photometrically at 405 nm at various points in time between 0-7 hours. The resultant data are evaluated with the aid of a Lineweaver-Burk plot, and the Km value is determined (Segel, I. H., Enzyme Kinetics, John Wiley and Sons, New York). The following chromogenic substrates were utilized:

[3] = molecular target: T1, t-PA (tissue-type plasminogen activator); assay: Km determination of amidolytic chromogenic substrates with t-PA; assay type: biochemical; details: 3 units per hole, 100 mM Tris pH 8.0/100 mM NaCl/0.01% Tween 80, 37° C., Lineweaver-Burk plot
Method: as §1

Urokinase [4] = molecular target: T2, Urokinase; details: literature value (Friedberger 1982), read-out: Km (value in parentheses, from the literature); cited from earlier work

T1 sequence (P00750 36-562): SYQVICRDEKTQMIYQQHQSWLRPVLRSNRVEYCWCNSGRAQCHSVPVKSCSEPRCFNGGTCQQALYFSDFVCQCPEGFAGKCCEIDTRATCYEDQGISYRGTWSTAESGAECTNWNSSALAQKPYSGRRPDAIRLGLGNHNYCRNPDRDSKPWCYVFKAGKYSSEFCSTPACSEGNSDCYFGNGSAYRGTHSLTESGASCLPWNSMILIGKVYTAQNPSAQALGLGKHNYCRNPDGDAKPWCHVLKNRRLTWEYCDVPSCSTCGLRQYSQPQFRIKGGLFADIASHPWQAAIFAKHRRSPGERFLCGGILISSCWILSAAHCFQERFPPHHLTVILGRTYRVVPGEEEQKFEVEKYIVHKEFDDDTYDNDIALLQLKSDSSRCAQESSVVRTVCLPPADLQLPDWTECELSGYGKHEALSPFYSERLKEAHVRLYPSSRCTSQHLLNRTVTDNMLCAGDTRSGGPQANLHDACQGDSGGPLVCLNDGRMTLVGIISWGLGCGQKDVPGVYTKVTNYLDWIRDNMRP

For CC[C@@H](C)[C@@H](N)C(=O)N1CCC[C@H]1C(=O)N[C@@H](CCCNC(=N)N)C(=O)Nc1ccc([N+](=O)[O-])cc1 [S-2288, H-D-Ile-Pro-Arg-pNA] (H-[dI]-Pro-Arg-pNA), the Km [1] is given as 1000 µM, the Km (Urokinase [2]; read-out: Km) is given as 400 µM and the Km [3] is given as 700 µM.

In the case of N=C(N)NCCC[C@H](NC(=O)CNC(=O)[C@@H]1CCC(=O)N1)C(=O)Nc1ccc([N+](=O)[O-])cc1 [S-2444, <Glu-Gly-Arg-pNA] ([pGlu]-Gly-Arg-pNA), the Km (Urokinase [2]) is listed as 100 µM and the Km (Urokinase [4]) is listed as 90 µM.
